Values after ≈ are worked out from the molar mass of the structure shown. Values joined by “and” are separate entries in the source; they are usually repeats but may differ in a detail not shown here. Equal entries are not always repeated. Where two headings read alike, the source gives them in different places.
What was measured:
C5a receptor [1] = biological target: T1, C5a receptor (Homo sapiens, UniProt P21730); conditions: cited from earlier work
T1 sequence (P21730 1-350): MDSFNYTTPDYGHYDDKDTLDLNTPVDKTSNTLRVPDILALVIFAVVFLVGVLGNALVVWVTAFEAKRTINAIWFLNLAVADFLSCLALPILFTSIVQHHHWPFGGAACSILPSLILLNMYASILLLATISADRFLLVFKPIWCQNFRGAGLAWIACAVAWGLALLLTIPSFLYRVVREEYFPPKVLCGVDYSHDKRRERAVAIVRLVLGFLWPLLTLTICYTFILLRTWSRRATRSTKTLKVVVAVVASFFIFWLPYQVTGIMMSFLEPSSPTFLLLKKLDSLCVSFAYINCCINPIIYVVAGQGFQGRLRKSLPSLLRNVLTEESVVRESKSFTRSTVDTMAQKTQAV

[2] = biological target: T2, human C5a receptor (CD88) (Homo sapiens, UniProt P21730); assay: C5a induced enzyme (glucosaminidase) release assay in RBL cells expressing the human C5a receptor (Example 28); type: cell-based; conditions: for IC50: RBL cells with human C5aR
T2 construct: expressed in transfected cells; host or cells: rat basophilic leukemia (RBL) cells, stably transfected
T2 sequence (P21730 1-350): T1 sequence (P21730 1-350)
In short: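 Rat basophilic leukemia (RBL) cells expressing human C5a receptor, at 2×10^6 cells/ml, primed with cytochalasin B, then incubated with test compound 10 min at 37 °C.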

C5a receptor [3] = biological target: T1, C5a receptor; assay: Binding of 125I-C5a to human C5aR transfected HEK293 cells (Example 27); parameters: expressed in transfected cells; host or cells: HEK293 cells; conditions: 125I-C5a tracer, read-out: IC50 for the inhibition of the binding of C5a to the C5a receptor
Experimental: The binding studies are done as determination of IC50 values with radioactively labeled C5a (125I) as tracer. For this purpose, human C5aR transfected HEK293 cells are adjusted to a concentration of […]. 30 μl of the cell suspension are added into a microtiter plate. Then the C5a receptor antagonists are added followed by 10 minutes pre-incubation at room temperature. After that, 10 μl of labelled C5a are added (15.000 cpm). The mixture is now incubated over ice for 30 minutes. After this the cells are isolated by means of a filter plate (Millipore MHVB 4510) and washed two times with 100 μl HAG-CM each (see example 32). The cells are dried and, after transferring the filter plate onto the adapter plate (Canberra 6005178), 50 μl/well Microscint 0 are added and the plate is measured in the scintillation counter.

[4] = tested on: E. coli induced oxidative burst in human whole blood; assay: E. coli induced oxidative burst in human whole blood (Phagoburst kit, Example 26); type: cell-based; conditions: read-out: IC50 for the inhibition of the E. coli induced oxidative burst in human whole blood
Experimental: The whole blood assay is carried out according to the instructions from the Phagoburst-Kit (Orpegen Pharma). 50 μg/ml of Refludan is used to inhibit blood clotting (Mollnes et al. 2002 Blood 100: 1869). Freshly drawn, anticoagulated blood is cooled over ice and 100 μl thereof are added to 10 μl of the compound solution containing at most 1.3% of DMSO. The mixture is incubated for 10 minutes at 37° C. After this the samples are put on ice again and 20 μl of opsonisated E. coli suspension (10^9 cells/ml) is added followed by 10 minutes of incubation at 37° C. 20 μl of the substrate are added to the cells followed by another 10 minutes of incubation at 37° C. After this 2 ml of lysis buffer are added to the cells, which are then kept at room temperature for 20 minutes. The cellular components are separated by centrifugation at 250×g for 5 minutes. The supernatant is discarded and 3 ml of washing solution are added to the pellet. The cells are centrifuged again and the resulting pellet is taken up in 200 μl DNA staining solution. The neutrophiles are analysed by means of a FACS device (FACSCalibur, Becton-Dickinson) according to the parameters given in the manual. […] It can be seen that, due to the determined activity, the compounds of this invention are suited to be used as therapeutics in human.

[5] = AB permeability in TC-7 cell based assay (Example 34); type: in vitro ADME; conditions: human, Caco-2, TC-7 cells, apical pH 6.5 / basolateral pH 7.4, 120 min
Experimental: Compounds to be tested are prepared at a concentration of 50 μM in HBSS-MES (5 mM, pH 6.5) (from a 10 mM stock solution in 100% DMSO). ^14C-mannitol (about 4 μM) is added and the solution is mixed and centrifuged. The supernatant is added to the apical side of a TC-7 cell culture (passage 15, in 24 well transwell plate) to obtain a DMSO concentration of 1%. At the basolateral side HBSS-HEPES (5 mM, pH 7.4) is placed. Subsequently, the cells are incubated for 120 minutes at 37° C. The integrity of the TC-7 cell layer is checked by means of the added mannitol (Papp <2.5 10^−6 cm/s). The Permeabilität Papp [cm/s] is equal to (VR×CR120)/(Δt×A×(CD,mid−CR,mid)). VR is the volume of the receiver chamber, CR120 the concentration the test compound in the receiver chamber after 120 minutes, Δt the incubation time, A the area of the TC-7 cell layer, CD,mid the midpoint concentration of the test substance in the donor chamber and CR,mid the concentration of the test compound in the receiver chamber.

[6] = biological target: T2, human C5a receptor (CD88); assay: Agonism in enzyme release assay without C5a stimulus (Example 32); type: cell-based; conditions: concentration applied 7.1 μM
Experimental: The assay has been described by Köhl (Köhl 1997 The Anaphylatoxins. In: Dodds, A. W., Sim, R. B. (Eds.), Complement: A Practical Approach. Oxford: 135). Basophile leukemia cells from rats (RBL), which express the human C5a receptor (CD88), are cultivated in DMEM with 10% fetal calf serum, 100 U/ml penicillin, 100 μg/ml streptomycin and 2 mM glutamin (all constituents are from Biochrome, Berlin) at 37° C. and with 10% CO2 until a confluent layer is obtained. All following details refer to a tissue culture flask with 75 cm^2 surface. The used up medium is removed. The cells are washed with 10 ml PBS (Dulbecco's PBS, Biochrome) and then covered with 3 ml cell dissociation solution (CDS, Sigma). The cells are incubated for 1 minute at room temperature. Then the CDS is removed and the cells are incubated for further 10-15 minutes at 37° C. to detach the cells completely from the flask. 20 μl solution of the compound to be testet are used in the assay. The assay solution must not contain more than 2.8% DMSO. The dilution series are prepared in ⅓ or ½ steps. To the 20 μl of the compound solutions 75 μl RBL cells are added which are prepared as follows: After the detachment of the cells from the flask surface they are taken up with 10 ml HAG-CM (20 mM HEPES; 125 mM NaCl, 5 mM KCl, 1 mM CaCl2, 1 mM MgCl2, 0.5 mM glucose, 0.25% BSA. HEPES preparation: 2.3 g/l HEPES salt+2.66 g/l HEPES acid) thermostated at 37° C. The cells are counted and centrifuged (200 g, 10 min). The cell pellet is taken up with pre-heated HAG-CM, and the cell density is adjusted to 2×10^6 Zellen/ml. The cells are incubated for 5 minutes at 37° C. 2.7 μl of a cytochalasin B solution (1000 μg/ml in DMSO, Sigma) are added per ml cell suspension. The Zellen are incubated for another 3 min at 37° C. Then, 75 μl of the cell suspension are added to the 20 μl solution containing the compounds to be tested. Thus a volume of […] per well is obtained. The cells are again incubated for 10 minutes at 37° C. Then 10 μl hrC5a (10.5 nM in HAG-CM, Sigma) are added per well, which is followed by 5 minutes incubation at 37° C. After this the plates are put on ice and centrifuged for 3 minutes at 1200×g and 4° C. 75 μl of the supernatant are added to 100 μl substrate solution (2.7 mg/ml p-nitrophenyl-N-acetyl-b-D-glucosaminide (Sigma) in 42.5 mM sodium acetate, pH 4.5). The plate is incubated for 1 hour at 37° C. Per well 75 μl 0.4 M glycine (pH 10.4) are added. After this the plate can be measured at a wave length of 405 nm. The IC50 value is determined by solving the four parameter equation y=((A−D)/(1+(x/C)^B))+D.
The only difference is the fact that 30 μl of the substance to be tested are mixed with 75 μl of the cell suspension described in example 28. The cells are not pre-incubated and no C5a is added to stimulate enzyme release.

[7] = Solubility in aqueous HEPES buffer by HPLC (Example 33); type: physicochemical; conditions: kinetic from dmso stock
Experimental: To determine the solubility the compound to be measured is dissolved (e.g, […] of a 5 mM solution in DMSO) in organic solvent (e.g. 198 μl DMSO) as well as in aqueous buffer solution (e.g. 198 μl HEPES buffer). Both solutions are analyzed via analytical HPLC and the areas under the peaks are compared. The value for the organic solution is taken as 100%.

[8] = Stability (shelf life) as solid TFA salt, RP-HPLC (Example 25); type: physicochemical; conditions: light, room temperature, up to 7 days
Experimental: The fractions containing the desired compound are lyophilized. In this way 1-40 mg of the compounds 11 and 13 are isolated as solid. Due to the basic amino groups the compounds are obtained as TFA salts. 0.5-10 mg of the solid are stored under the influence of light at room temperature to determine their stability over time.
The conditions were as follows:
FIG. 1 A): after purification via HPLC (solution in MeCN/H2O/TFA),
FIG. 1 B) after lyophilization (0 days of storage as solid)
FIG. 1 C) after 7 days of storage as solid

[9] = read-out: IC50 for the inhibition of C5a induced enzyme release
[10] = inhibition of C5a induced enzyme release, read-out: Activity-range (antagonistic activity, IC50 enzyme release)
[11] = ratio of enzyme release IC50 values

Structure (SMILES)	IC50 [2, 9]	IC50 [2, 10]	IC50 (C5a receptor [3])	IC50 [4]	Agonism (% of the maximum enzyme release induced by C5a) [6]	further results
Cc1ccccc1C1c2ccccc2CCN1CC(=O)N(Cc1cccc(O)c1)C1Cc2ccccc2C1 (stereo not shown) [Compound 9, N-(3-Hydroxy-benzyl)-N-indane-2-yl-2-(1-o-tolyl-3,4-dihydro-1H-isochinolin-2-yl)-acetamide, reference compound]	7150 nM and 7140 nM					activity, inhibition of C5a induced calcium mobilization (C5a receptor [1]): 24 nM
CN(CC(=O)N(Cc1ccccc1F)C1Cc2ccccc2C1)C(c1ccccc1)c1ccccc1 [Compound 10, 2-(Benzhydryl-methyl-amino)-N-(2-fluoro-benzyl)-N-indane-2-yl-acetamide, reference compound]	> 4760 nM	> 5000 nM				activity, inhibition of C5a induced calcium mobilization (C5a receptor [1]): 465 nM
CCc1c(N)cc(Cl)c(CC)c1NC(=O)N(c1ccc(NC)cc1)[C@@H](C)c1ccccc1 [compound 132, (S)-3-(3-amino-5-chloro-2,6-diethyl-phenyl)-1-(4-methylamino-phenyl)-1-(1-phenyl-ethyl)-urea]		< 60 nM	43.4 nM	620 nM		
CCc1c(N)cc(Cl)c(CC)c1NC(=O)N(c1ccc(C(C)C)cc1)C1CCc2cc(Cl)ccc21 (stereo not shown) [compound 88, 3-(3-amino-5-chloro-2,6-diethyl-phenyl)-1-(5-chloro-indane-1-yl)-1-(4-isopropyl-phenyl)-urea]		60 to 200 nM	44 nM			
CCc1c(N)cc(Cl)c(CC)c1NC(=O)N(c1ccc(OC)cc1F)[C@@H](C)c1ccc(Cl)cc1 [compound 102, (S)-3-(3-amino-5-chloro-2,6-diethyl-phenyl)-1-[1-(4-chloro-phenyl)-ethyl]-1-(2-fluoro-4-methoxy-phenyl)-urea]				3200 nM	0.00%	Papp A→B at 120 min, 50 μM [5]: 1.1 ×10⁻⁶ cm/s
CCc1c(N)cc(Cl)c(CC)c1NC(=O)N(Cc1ccc(Cl)cc1)c1ccc(OC)c2cccnc12 [compound 125, 3-(3-amino-5-chloro-2,6-diethyl-phenyl)-1-(4-chloro-benzyl)-1-(5-methoxy-chinolin-8-yl)-urea]		60 to 200 nM			0.00%	Papp A→B at 120 min, 50 μM [5]: 2.9 ×10⁻⁶ cm/s; solubility [7]: 4 µM (≈ 2.09 µg/mL)
CCc1c(N)cc(Cl)c(CC)c1NC(=O)N(Cc1ccc(Cl)cc1)c1ccc(NC)cc1 [compound 120, 3-(3-amino-5-chloro-2,6-diethyl-phenyl)-1-(4-chloro-benzyl)-1-(4-methylamino-phenyl)-urea]			86.5 nM	1900 nM		Improvement of the antagonistic activity by a factor (vs compound 98, CH2 exchanged by NH) [2, 11]: 4.5
CCc1c(N)cc(Cl)c(CC)c1NC(=O)N(Cc1ccc(OC)cc1)c1ccc(C(C)C)cc1 [compound 31, 3-(3-amino-5-chloro-2,6-diethyl-phenyl)-1-(4-isopropyl-phenyl)-1-(4-methoxy-benzyl)-urea]	164 nM				0.12%	solubility [7]: 2 µM (≈ 0.96 µg/mL); Increase of the antagonistic activity by a factor (vs compound 24, NH2 group introduced) [2, 11]: 6.4
CCc1c(N)cc(Cl)c(CC)c1NC(=O)N(Cc1ccc(OC)cc1)c1ccc(C(C)C)cc1 [compound 13]						Stability on storage as solid [8]: does not show such instabilities
